Measurements as given in patent US20250205204A1, “Transcription Factor Brn2 Inhibitory Compounds for Use as Therapeutics” (The University of British Columbia, priority 2021, published 2025).
Where two headings read alike, the source gives them in different places.

Columns and labels:
[1] = Metabolic stability in liver microsomes (MLM); format: in vitro ADME, mice; details: 0.25 mg/mL protein; for half-life at 1 μM: mouse, liver microsomes, pH 7.4, 1 μM compound, read-out: T1/2 in mins (MLM); for Met Stab % (60 mins) MLM: percent remaining at 60 min, 1 μM compound, 1 mM NADPH
Experimental: Preparation of Potassium Phosphate Buffer, 50 mM (pH 7.4)
Potassium phosphate buffer (Kphos) was prepared by adding 0.647 g potassium phosphate monobasic (KH2PO4) and 3.527 g potassium phosphate dibasic (KH2PO4) to 400 mL of Milli-Q™ water. pH of the buffer was adjusted to 7.4 and volume was made up to 500 mL.
Preparation of Microsomes
Stock solutions of BRN2 inhibitors were prepared in DMSO at a concentration of 1 mM
Preparation of NADPH Solution
• Total Incubation volume: 100 μL • Compound concentration: 1 μM • Protein Concentration: 0.25 mg/mL • NADPH: 1 mM • Final DMSO contain: 0.1% • Number of replicates: 2 • Time points: 0, 5, 15, 30 and 60 min
From the above mix, 70 μL was added to individual wells of 96 well reaction plates and pre-incubated in a 37° C. water bath for 5 min. […] Reactions without NADPH and buffer controls (minus NADPH) at 0 min and 60 min were also incubated to rule out non-NADPH metabolism or chemical instability in the incubation buffer. All reactions were terminated using 100 μL of ice-cold acetonitrile containing internal standard at 0, 5, 15, 30 and 60 min.
Samples were monitored for parent compounds disappearance in MRM mode using LC-MS/MS.
The percent remaining of test compounds and positive control in each sample was determined by considering peak area ratio in the 0 minute sample as 100%. The Half-life of compounds in microsomes is calculated by formula: […]
In vitro intrinsic clearance (CL'int) (units in mL/min/kg) was calculated using the formula.
[formula] • For liver microsomes, scaling factor used was 45 mg microsomal protein per gm liver. • * Indicates liver weight (gm) which varies species wise. For mice the liver weights are 90 gm.

42D^ENZR cells = test: Cell proliferation, BRN2 expressing 42D cells (crystal violet); format: cell-based; details: for Growth Specificity: 42D (express BRN2) versus 16D (no BRN2) cells, result in words
Experimental: Step 3: Cell Proliferation
Plate 42DE^NZR (˜7000 cells per well) and 16D^CRPC (˜5000 cells per well) cells in 96 well plate with a volume of 100 μL per well. • 2. Next day 1 mL aliquots of media are combined with 3× the desired concentration of compounds. The aliquots are vortexed and 50 μL of each 3× concentration is added to the 100 μL of media in each well to give the ix desired concentration.
The following are the desired concentrations:
Approximately 72 hours later, 17 μL of 10% Glutaraldehyde is added to each well and plates are placed on a shaker for 20-30 minutes. • 4. Media is washed off the fixed cells by slow submersion in a container of water. Then the water is removed by tapping the plate upside down. • 5. 75 μL of Crystal Violet™ solution is added into the 96 well plates and placed on a shaker for ˜30 minutes. • 6. Media is washed off the fixed cells by repeated slow submersion in a container of water and the plates are allowed to dry over-night. • 7. Next day, 75 μL of Sorensen Solution is accurately pipetted into each well. The plates placed on a shaker for ˜30 minutes. • 8. Absorbance is measured in the plate at 590 nm.
There is a distinction in TABLES 1 and 2 difference between “Active” and “Specific” or “Specificity”.

[2] = read-out: IC50 (effective on both 42D and 16D cells)
[3] = 42D cells, proliferation, about 72 hours, read-out: 42D IC50

Structure (SMILES)	half-life at 1 μM [1] [min]	Met Stab % (60 mins) MLM [1] [%]	Growth Specificity (42D^ENZR cells; about 72 hours)	IC50 (42D^ENZR cells; [2]) [µM]	IC50 (42D^ENZR cells; [3]) [µM]
CC1(C)C/C(=N/Nc2nc3ccccc3s2)c2ccccc21 [7-53]	13	4	effective on both 42D and 16D cells	10	–
c1ccc2c(c1)CC/C2=N/Nc1ccc2ccccc2c1 [7-48]	22	14	Not effective on 42D or 16D cells	–	–
Fc1ccc2c(c1)/C(=N\Nc1nc3ccccc3s1)CC2 [7-56]	8	0	effective on both 42D and 16D cells	10	–
Cc1nc(N/N=C2/CCc3ccccc32)sc1C [7-63]	11	1	Not effective on 42D or 16D cells	–	–
O=c1c(=NNc2nc3ccccc3s2)c(=O)c2ccccc12 [7-85]	32	25	Not specific	–	–
Fc1cc(F)c2nc(N/N=C3\CCc4ccccc43)sc2c1 [7-39]	17	7	Not effective on 42D or 16D cells	–	–
Clc1ccc2c(c1)/C(=N\Nc1nc3ccccc3s1)CC2 [7-38]	8	1	Not effective on 42D or 16D cells	–	–
Cn1c(N/N=C2/Cc3ccccc3C2=O)nc2ccccc21 [7-79]	6	2	Specific but weak	–	> 15
O=C1/C(=N\Nc2nc3ccccc3s2)CC2C=CC=CC12 (centres unmarked) [7-41]	33	28	Not effective on 42D or 16D cells	–	–
O=C(O)c1csc(N/N=C2/Cc3ccccc3C2=O)n1 [7-87]	> 60	98	Not specific	–	–
c1ccc(N/N=C2\CCc3ccccc32)nc1 [7-60]	8	0	Not effective on 42D or 16D cells	–	–
c1ccc2c(c1)CC/C2=N/Nc1nccs1 [7-64]	8	0	Not effective on 42D or 16D cells	–	–
O=C1c2ccccc2CC1/C=N/Nc1nc2ccccc2s1 (centres unmarked) [7-69, (E)-2-((2-(benzo[d]thiazol-2-yl)hydrazineylidene)methyl)-2,3-dihydro-1H-inden-1-one]	44	33	not specific	–	–
CC1(C)/C(=N/Nc2nc3ccccc3s2)C(=O)c2ccccc21 [7-67, (Z)-2-(2-(benzo[d]thiazol-2-yl)hydrazineylidene)-3,3-dimethyl-2,3-dihydro-1H-inden-1-one]	34	28	not specific	–	–
O=C(NNc1nc2ccccc2s1)C1Cc2ccccc2C1=O (centres unmarked) [7-86]	19	18	Not specific	–	–
Fc1cccc2c1/C(=N\Nc1nc3ccccc3s1)CC2 [7-58]	7	0	effective on both 42D and 16D cells	10	–
c1ccc2c(c1)CCC2c1ccc(-c2nc3ccccc3s2)o1 (centres unmarked) [7-44]	10	1	Not effective on 42D or 16D cells	–	–
FC1(F)Cc2ccccc2/C1=N/Nc1nc2ccccc2s1 [7-35]	12	1	Not effective on 42D or 16D cells	–	–
O=C(O)c1cnc(N/N=C2/Cc3ccccc3C2=O)s1 [7-88]	> 60	94	Not specific	–	–

Structure (SMILES)	half-life at 1 μM [1] [min]	Met Stab % (60 mins) MLM [1] [%]	Growth Specificity (42D^ENZR cells; about 72 hours)	IC50 (42D^ENZR cells; [2]) [µM]	IC50 (42D^ENZR cells; [3]) [µM]
N#Cc1ccc2nc(N/N=C3\CCc4ccccc43)sc2c1 [7-33]	47	35	Non-specific. Effective on both 42D and 16D cells	–	–
c1ccc2c(c1)Cc1nn(-c3nc4ccccc4s3)cc1-2 [7-37]	16	7	Not effective on 42D or 16D cells	–	–
O=C(Nc1nc2ccccc2s1)C1CCc2ccccc21 (centres unmarked) [7-51]	12	1	Not effective on 42D or 16D cells	–	–
C/C(=N\Nc1nc2ccccc2s1)c1ccccc1C [7-54]	–	0	Not effective on 42D or 16D cells	–	–
O=C1/C(=N\Nc2ccc3ccccc3n2)Cc2ccccc21 [7-80, (Z)-2-(2-(quinolin-2-yl) hydrazineylidene)-2,3-dihydro-1H-inden-1-one]	10	4	Specific to 42D	–	–
CN(/N=C1\CCc2ccccc21)c1nc2ccccc2s1 [7-30]	11	1	Non-specific. Effective on both 42D and 16D cells	–	–
c1ccc2c(c1)CN(Nc1nc3ccccc3s1)C2 [7-49]	14	1	Not effective on 42D or 16D cells	–	–
O=C1/C(=N\Nc2nc(-c3ccccc3)cs2)Cc2ccccc21 [7-78]	32	32	Not effective on 42D or 16D cells	–	–
COC(=O)C1/C(=N/Nc2nc3ccccc3s2)Cc2ccccc21 (centres unmarked) [7-68, methyl (E)-2-(2-(benzo[d]thiazol-2-yl)hydrazineylidene)-2,3-dihydro-1H-indene-1-carboxylate]	< 5	0	not specific	–	–
Fc1cc(Br)c2c(c1)/C(=N\Nc1ccc3ccccc3n1)CC2 [7-45]	21	14	Not effective on 42D or 16D cells	–	–
CC1(C)Cc2ccccc2/C1=N\Nc1nc2ccccc2s1 [7-61]	10	1	effective on both 42D and 16D cells	10	–
O=C1/C(=N\Nc2nc3ccccc3s2)CCc2ccccc21 [7-89]	11	2	Not specific	–	–
O=C1/C(=N\Nc2nc3ccccc3[nH]2)Cc2ccccc21 [7-76, (Z)-2-(2-(1H-benzo[d]imidazol-2-yl)hydrazineylidene)-2,3-dihydro-1H-inden-1-one]	10	1	Not effective on 42D or 16D cells	–	–
COc1ccc2c(c1)C/C(=N/Nc1nc3ccccc3s1)C2=O [7-99]	15	6	Potent but effective on both 42D and 16D cells	–	–
O=C1/C(=N\Nc2nc3ccccc3s2)Cc2ccc(C(F)(F)F)cc21 [7-107]	> 60	82	Low potency	–	–
Fc1ccc2nc(N/N=C3/CCc4ccccc43)sc2c1 [7-47]	7	0	Not effective on 42D or 16D cells	–	–
O=C1/C(=N\Nc2nc3ccccc3s2)Cc2cc(-c3ccccc3)ccc21 [7-98]	33	26	Specific to 42D	–	~2
O=C1/C(=N\Nc2cc3ccccc3s2)Cc2ccccc21 [7-83, (Z)-2-(2-(benzo[b]thiophen-2-yl)hydrazineylidene)-2,3-dihydro-1H-inden-1-one]	17	16	Not effective on 42D or 16D cells	–	–
c1ccc2c(c1)CCC2c1cnn(-c2nc3ccccc3s2)c1 (centres unmarked) [7-43]	10	1	Not effective on 42D or 16D cells	–	–
